Reference: US20250326777A1, “COMPOUNDS, COMPOSITIONS AND METHODS THEREOF” (HEPAITECH (BEIJING) BIOPHARMA TECHNOLOGY CO., LTD., priority 2022, published 2025)

Target: T1, human MRGPRX4 (Homo sapiens, UniProt Q96LA9)
T1 construct: expressed in transfected cells
Assay: MRGPRX4 antagonist calcium (FLIPR, Fluo-8) assay in HEK293T cells stably expressing human MRGPRX4, agonist 0.2 μM deoxycholic acid-3-phosphoric acid
Type: cell-based
Conditions: for IC50: antagonist mode, top conc. 30 μM, ten 3-fold serial dilutions, C may also mean <40% inhibition at 2 μM, read-out: Antagonist activity (IC50 class); for inhibition at 0.5 µM: single concentration 0.5 μM
Method: HEK293T cells stably expressing human MRGPRX4 were cultured in DMEM medium supplements with 10% FBS, 100 U/mL penicillin-streptomycin, 20 mM HEPES and 1 μg/mL puromycin at 37° C. with 5% (v/v) CO2. One day before test, the cells were detached using TrypLE™ Express and counted using cell counter. In a 384-well plate cells were seeded at a density of 20,000 cells/well in 20 uL/well planting medium (DMEM medium supplements with 5% FBS, 100 U/mL penicillin-streptomycin and 20 mM HEPES), and incubated overnight at 37° C. with 5% (v/v) CO2. On the day of experiments, the dye solution, prepared following the manufacture's instruction of the Screen Quest™ Fluo-8 No Wash Calcium Assay Kit, was added to each well (20 μL/well) of the cell plate. The cell plate was incubated at 25° C. for 1 hour. Test compounds in different doses were transferred to the cell plate by FLIPR and the plate was kept in the dark at 25° C. for 30 minutes. The agonist solution, 0.2 μM of deoxycholic acid-3-phosphoric acid in assay buffer, was added to each well of the plate. The plate was read for 160 sec with 1 sec interval to obtain data of antagonist mode in FLIPR. For various compounds, IC50 values were calculated by fitting % inhibition against log of compound concentrations (top conc. 30 μM, ten 3-fold serial dilutions) with Hill equation using XLfit. […] Those skilled in the art appreciate that IC50 of various compounds can be assessed in accordance with the present disclosure.

[1] = HEK293T cells stably expressing human MRGPRX4
[2] = HEK-293T, HEK293T cells stably expressing human MRGPRX4

T1 sequence (Q96LA9 whole entry): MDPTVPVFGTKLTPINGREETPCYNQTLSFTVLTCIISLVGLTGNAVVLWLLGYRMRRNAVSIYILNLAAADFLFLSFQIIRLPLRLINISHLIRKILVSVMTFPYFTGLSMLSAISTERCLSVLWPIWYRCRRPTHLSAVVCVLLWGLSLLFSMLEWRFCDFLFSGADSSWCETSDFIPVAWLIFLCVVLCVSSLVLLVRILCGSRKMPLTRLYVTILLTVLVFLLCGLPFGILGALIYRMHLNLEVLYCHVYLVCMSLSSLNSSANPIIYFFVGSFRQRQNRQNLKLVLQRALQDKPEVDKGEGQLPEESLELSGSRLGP

Row | SMILES | IC50 [1] | further results
1 | Fc1c(-c2nnn[nH]2)cccc1[C@@H]1Cc2cc(C(F)(F)F)ccc2O1 [Compound 88] | < 1000 nM | –
2 | Fc1c(-c2nnn[nH]2)cccc1[C@H]1Cc2cc(C(F)(F)F)ccc2O1 [Compound 89] | – | inhibition at 2 µM (HEK-293T, single concentration 2 μM, HEK293T cells stably expressing human MRGPRX4): 61%
3 | FC(F)(F)c1ccc2c(c1)CC(c1cc(-c3nnn[nH]3)cc(C3CC3)c1)O2 (stereo not drawn) [Compound 90] | – | inhibition at 0.5 µM [2]: 27%
4 | Fc1c(-c2nnn[nH]2)cccc1C1Cc2c(ccc3ccccc23)O1 (stereo not drawn) [Compound 92] | < 1000 nM | –
5 | FC(F)(F)c1ccc2c(c1)CC(c1cccc(-c3nnn[nH]3)c1)O2 (stereo not drawn) [Compound 93] | – | inhibition at 0.5 µM [2]: 24%
6 | Cc1cc(-c2nnn[nH]2)cc(C2Cc3cc(C(F)(F)F)ccc3O2)c1 (stereo not drawn) [Compound 94] | < 1000 nM | –
7 | Cc1ccc2c(c1)CC(c1cccc(-c3nnn[nH]3)c1F)O2 (stereo not drawn) [Compound 95] | – | inhibition at 0.5 µM [2]: 8.6%
8 | Fc1c(-c2nnn[nH]2)cccc1C1Cc2cc(OC(F)(F)F)ccc2O1 (stereo not drawn) [Compound 96] | – | inhibition at 0.5 µM [2]: 3.7%
9 | Fc1ccc(C2Cc3cc(C(F)(F)F)ccc3O2)cc1-c1nnn[nH]1 (stereo not drawn) [Compound 98] | < 1000 nM | –
10 | Cc1cc(-c2nnn[nH]2)c(F)c(C2Cc3cc(C(F)(F)F)ccc3O2)c1 (stereo not drawn) [Compound 99] | < 1000 nM | –
11 | N#Cc1cc(-c2nnn[nH]2)cc(C2Cc3cc(C(F)(F)F)ccc3O2)c1 (stereo not drawn) [Compound 101] | < 1000 nM | –
12 | Fc1c(-c2nnn[nH]2)cccc1[C@@H]1Cc2c(ccc3ccccc23)O1 [Compound 102] | < 1000 nM | –
13 | O=c1[nH]c(-c2cccc([C@@H]3Cc4cc(C(F)(F)F)ccc4O3)c2F)no1 [Compound 105] | < 1000 nM | –
14 | Cn1c(-c2ccc(F)c(C(=O)O)c2)cc2ccc(C(F)(F)F)cc21 [Example 2] | > 10000 nM | –
15 | Cn1c(-c2cccc(C(=O)O)c2)cc2ccc(C(F)(F)F)cc21 [Example 4] | > 10000 nM | –
16 | CC(C)n1c(-c2ccc(C(=O)O)cc2)cc2ccc(C(F)(F)F)cc21 [Example 5] | 1000 to 10000 nM | –
17 | Cn1c(-c2ccc(C(=O)O)cc2)cc2ccc(C(=O)O)cc21 [Example 9] | > 10000 nM | –
18 | CC(C)n1c(-c2ccc(C(=O)O)cc2)cc2cc(Cl)c(Cl)cc21 [Example 11] | > 10000 nM | –
19 | Cn1c(-c2ccc(C(=O)O)cc2F)cc2ccc(C(F)(F)F)cc21 [Example 14] | 1000 to 10000 nM | –
20 | CCCn1c(-c2ccc(C(=O)O)cc2)cc2ccc(C(F)(F)F)cc21 [Example 16] | 1000 to 10000 nM | –
21 | CC(C)Cn1c(-c2ccc(C(=O)O)cc2)cc2ccc(C(F)(F)F)cc21 [Example 17] | 1000 to 10000 nM | –

The next lines start with results.

Row | IC50 [1] | SMILES | further results
22 | < 1000 nM | O=C(O)c1cccc([C@@H]2Cc3cc(C(F)(F)F)ccc3O2)c1F [Compound 52A] | MRGPRX4 inhibition activity, comparison of enantiomers (S enantiomer 52A versus 52B, see Table 1): much higher MRGPRX4 inhibition activity than 52B
23 | > 10000 nM | O=C(O)c1cccc([C@H]2Cc3cc(C(F)(F)F)ccc3O2)c1F [Compound 52B] | –
24 | < 1000 nM | Fc1cc(-c2nnn[nH]2)cc(C2Cc3cc(C(F)(F)F)ccc3O2)c1 (stereo not drawn) [Compound 91] | –
25 | < 1000 nM | Fc1ccc(C2Cc3c(ccc4ccccc34)O2)cc1-c1nnn[nH]1 (stereo not drawn) [Compound 97] | –
26 | < 1000 nM | Fc1ccc([C@@H]2Cc3c(ccc4ccccc34)O2)cc1-c1nnn[nH]1 [Compound 103] | –
27 | < 1000 nM | Fc1ccc([C@@H]2Cc3cc(C(F)(F)F)ccc3O2)cc1-c1nnn[nH]1 [Compound 104] | –
28 | 1000 to 10000 nM | Cn1c(-c2ccc(C(=O)O)cc2)cc2ccc(C(F)(F)F)cc21 [Example 1] | –
29 | > 10000 nM | O=C(O)c1ccc(-c2cc3ccc(C(F)(F)F)cc3[nH]2)cc1 [Example 3] | –
30 | > 10000 nM | Cn1c(-c2ccc(C(=O)O)cc2)cc2ccc(C#N)cc21 [Example 6] | –
31 | > 10000 nM | Cn1c(-c2cccc(C(=O)O)c2)cc2ccc(C#N)cc21 [Example 7] | –
32 | > 10000 nM | COc1ccc2cc(-c3ccc(C(=O)O)cc3)n(C)c2c1 [Example 10] | –
33 | > 10000 nM | Cn1c(-c2ccc(C(=O)O)cc2)cc2cc(Cl)c(Cl)cc21 [Example 12] | –
34 | 1000 to 10000 nM | Cn1c(-c2ccc(C(=O)O)cc2)cc2c(Cl)cc(C(F)(F)F)cc21 [Example 13] | –
35 | 1000 to 10000 nM | Cn1c(-c2ccc(C(=O)O)cc2)cc2cc(C(F)(F)F)ccc21 [Example 15] | –
